Measurements from PubChem BioAssay (NCI).
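How tested: cells in 96-well plates exposed to compound for 48 hours at five concentrations. The concentration for 50% growth inhibition is given as GI50. Definition used: TGI = concentration required for complete inhibition of growth.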

Experiments:
Test in all cases: NCI tumour cell line growth inhibition, 48 h
[1] = test system: A498 renal
[2] = test system: A549 NSCLC
[3] = test system: CAKI-1 renal
[4] = test system: CCRF-CEM leukemia
[5] = test system: COLO 205 colon
[6] = test system: DMS 114 small cell lung
[7] = test system: DMS 273 small cell lung
[8] = test system: EKVX NSCLC
[9] = test system: HCC-2998 colon
[10] = test system: HCT-116 colon
[11] = test system: HCT-15 colon
[12] = test system: HL-60(TB) leukemia
[13] = test system: HOP-62 NSCLC
[14] = test system: HOP-92 NSCLC
[15] = test system: HT29 colon
[16] = test system: IGROV1 ovarian
[17] = test system: K-562 leukemia
[18] = test system: KM12 colon
[19] = test system: KM20L2 colon
[20] = test system: LOX IMVI melanoma
[21] = test system: M19-MEL melanoma
[22] = test system: MALME-3M melanoma
[23] = test system: MCF7 breast
[24] = test system: MOLT-4 leukemia
[25] = test system: NCI-H23 lung
[26] = test system: NCI-H460 lung
[27] = test system: NCI-H522 lung
[28] = test system: OVCAR-3 ovarian
[29] = test system: OVCAR-4 ovarian
[30] = test system: OVCAR-5 ovarian
[31] = test system: OVCAR-8 ovarian
[32] = test system: P388 leukemia
[33] = test system: P388/ADR leukemia
[34] = test system: RPMI-8226 leukemia
[35] = test system: RXF 393 renal
[36] = test system: SF-268 CNS
[37] = test system: SF-539 CNS
[38] = test system: SK-MEL-2 melanoma
[39] = test system: SK-MEL-28 melanoma
[40] = test system: SK-MEL-5 melanoma
[41] = test system: SN12C renal
[42] = test system: SN12K1 renal
[43] = test system: SNB-19 CNS
[44] = test system: SNB-75 CNS
[45] = test system: SNB-78 CNS
[46] = test system: SW-620 colon
[47] = test system: U251 CNS
[48] = test system: UACC-257 melanoma
[49] = test system: UACC-62 melanoma
[50] = test system: UO-31 renal

## CCN(CC)c1ccc2cc(C(=O)Nc3ccc4[nH]c(C(=O)N5C[C@@H](CCl)c6c5cc(OC(=O)Nc5ccccc5)c5[nH]cc(C)c65)cc4c3)oc2c1
[1]
  TGI: 0.000864 µM
[2]
  GI50: 147 µM
  TGI: > 1000 µM
[3]
  TGI: 91.1 pM
[4]
  GI50: 178 µM
  TGI: > 1000 µM
[5]
  GI50: > 1000 µM
  TGI: > 1000 µM
[6]
  GI50: 254 µM
  TGI: > 1000 µM
[7]
  GI50: 70.4 µM
[8]
  GI50: 448 µM
[9]
  TGI: > 1000 µM
[10]
  TGI: 378 µM
[11]
  GI50: 539 µM
  TGI: > 1000 µM
[12]
  GI50: 125 µM
  TGI: 624 µM
[13]
  GI50: 104 µM
[14]
  TGI: > 1000 µM
[15]
  TGI: > 1000 µM
[16]
  GI50: 914 µM
  TGI: > 1000 µM
[17]
  GI50: 278 µM
  TGI: > 1000 µM
[18]
  TGI: > 1000 µM
[19]
  TGI: > 1000 µM
[20]
  GI50: 295 µM
[21]
  GI50: 237 µM
  TGI: 922 µM
[22]
  GI50: 510 µM
  TGI: > 1000 µM
[23]
  GI50: 68.8 µM
  TGI: > 1000 µM
[24]
  GI50: 294 µM
  TGI: > 1000 µM
[25]
  GI50: 230 µM
  TGI: > 1000 µM
[26]
  GI50: 39.4 µM
[27]
  GI50: 438 µM
  TGI: > 1000 µM
[28]
  TGI: > 1000 µM
[29]
  GI50: 428 µM
  TGI: > 1000 µM
[30]
  GI50: 264 µM
  TGI: 633 µM
[31]
  TGI: > 1000 µM
[32]
  GI50: 89.4 µM
[33]
  TGI: > 1000 µM
[34]
  GI50: 681 µM
  TGI: > 1000 µM
[35]
  GI50: 202 µM
[36]
  GI50: 133 µM
  TGI: 742 µM
[37]
  TGI: 796 µM
[38]
  GI50: > 1000 µM
  TGI: > 1000 µM
[39]
  GI50: 401 µM
  TGI: > 1000 µM
[40]
  TGI: > 1000 µM
[41]
  TGI: > 1000 µM
[42]
  GI50: 128 µM
  TGI: 387 µM
[43]
  TGI: 758 µM
[44]
  TGI: > 1000 µM
[45]
  GI50: 83.7 µM
  TGI: > 1000 µM
[46]
  GI50: 207 µM
  TGI: > 1000 µM
[47]
  GI50: 92.7 µM
  TGI: 235 µM
[48]
  TGI: > 1000 µM
[49]
  GI50: 44.5 µM
[50]
  TGI: 982 µM
